{"source": "paper PMC6470589", "about": "“Contribution of Molecular Structure to Self-Assembling and Biological Properties of Bifunctional Lipid-Like 4-(N-Alkylpyridinium)-1,4-Dihydropyridines” (Pharmaceutics, 2019)", "key": {"[1]": {"design": "method as in PMID 26042808", "conditions": "cited from earlier work"}, "[2]": {"system": "DPPC (1,2-dipalmitoyl-sn-glycero-3-phosphocholine) vesicles with DPH probe", "experiment": "Phospholipid binding assay (quenching of DPH fluorescence)", "conditions": "DPPC 2 × 10^−5 M, DPH 5 × 10^−6 M, 1,4-DHP 5 × 10^−5 M", "protocol": "Binding studies of the 4-(N-alkylpyridinium)-1,4-DHP derivatives 1–11 with phospholipid were carried out in Tris-buffered saline (TBS) buffer (10 mM of Tris, 150 mM of NaCl, pH 7.4) by a fluorescence probe technique using a modified protocol described by Ma et al.. Briefly, 1,2-dipalmitoyl-sn-glycero-3-phosphocholine (DPPC) vesicles dispersed in TBS buffer were prepared by sonication of the lipid solution using a probe sonifier for 30 min. The concentration of DPPC stock solution was 6 × 10^−5 M; the concentration of the stock solutions of the 4-(N-alkylpyridinium)-1,4-DHP derivatives were 1.5 × 10^−4 M.\nTo characterise the hydrophobic interaction between the 1,4-DHP and phospholipids, 1,6-diphenyl-1,3,5-hexatriene (DPH) was used as a fluorescence probe. […]\nMixtures containing 40 µL of DPPC stock solution (6 × 10^−5 M) and 40 µL of DPH diluted stock solution (15 × 10^−6 M) were incubated at 50 °C for 0.5 h in the dark; then, an aliquot of 4-(N-alkylpyridinium)-1,4-DHP derivatives was added with the following incubation at 50 °C for 0.5 h in the dark, after which samples were cooled to room temperature and the fluorescence intensity was measured by a Tecan multiplate reader Infinite1000 (Tecan Austria GmbH, Salzburg, Austria). […]"}, "[3]": {"system": "transgenic Alzheimer's disease female mice", "design": "method as in PMID 27345857", "conditions": "cited from earlier work"}, "[4]": {"system": "NIH 3T3 (Mouse Swiss Albino embryo fibroblast) cells", "experiment": "Basal cytotoxicity test (neutral red uptake) with estimation of LD50 from IC50", "format": "cell-based", "conditions": "category by estimated LD50 (mg/kg)", "protocol": "The neutral red uptake (NRU) assay was performed according to the standard protocol of Stokes modified by NICEATM-ECVAM validation study. The NRU cytotoxicity assay procedure was based on the ability of viable cells to incorporate and bind neutral red, which is a supravital dye.\nNIH 3T3 (Mouse Swiss Albino embryo fibroblast) cells (9000 cells/well) were placed into 96-well plates for 24 h in DMEM medium containing 5% fetal bovine serum (FBS). Then, they were exposed to the test compound over a range of seven concentrations (1000 μg/mL, 316 μg/mL, 100 μg/mL, 31 μg/mL, 10 μg/mL, 3.0 μg/mL, and 1.0 μg/mL) for 24 h. Untreated cells were used as a control. After 24 h, the medium was removed from all plates. Then, 250 μL of neutral red (NR) solution was added (0.05 mg/mL NR in DMEM 24 h pre-incubated at 37 °C and then filtered before use through a 0.22-µm syringe filter). Plates were incubated for 3 h, and then, cells were washed three times with phosphate buffered saline (PBS). The dye within viable cells was released by extraction with a mixture of acetic acid, ethanol, and water (1:50:49). The absorbance of neutral red was measured using a spectrophotometer multiplate reader Infinite M1000 (Tecan Austria GmbH, Salzburg, Austria) at 540 nm. The optical density (OD) was calculated using the formula: OD (treated cells) × 100/OD (control cells). The IC50 values were calculated using the program Graph Pad Prism® 3.0.\nData from the in vitro tests were used for estimating the starting dose for acute oral systemic toxicity tests in rodent. The in vivo starting dose is an estimated LD50 value that is calculated by inserting the in vitro IC50 value into a regression formula: log LD50 (mM/kg) = 0.439 log IC50 (mM) + 0.621 [29]. The value is recalculated to mg/kg, and compounds are evaluated in accordance with four toxicity categories: category 1: LD50 ≤ 5 mg/kg (highly toxic); category 2: 5 < LD50 ≤ 50 mg/kg (moderately toxic); category 3: 50 < LD50 ≤ 300 mg/kg (slightly toxic); category 4: 300 < LD50 ≤ 2000 mg/kg (practically non-toxic). Using an alternative in vitro method enables comparing the possible toxicity of new compounds and selecting compounds for further study, which will vastly reduce the number of animal experiments."}}}
{"compound": "CCCCCCCCCCCC[n+]1cccc(C2C(C(=O)OCC)=C(C)NC(C)=C2C(=O)OCC)c1", "note": "[Compound 3]", "values": [{"measurement": "Blood–brain barrier crossing", "setting": "[1]", "value": "crossed the blood–brain barrier"}, {"measurement": "Quenching of the fluorescence of the DPH-DPPC system", "setting": "[2]", "value": "lowest relative fluorescence intensity"}, {"measurement": "Memory-improving anxiolytic effects", "setting": "[3]", "value": "memory-improving anxiolytic effects"}, {"measurement": "Toxicity category from estimated LD50", "setting": "[4]", "value": "non-toxic"}]}
